This assay has as its target Delta-type opioid receptor (Homo sapiens, UniProt P41143). The assay is described as follows: Displacement of [125I]deltorphin 2 from human recombinant delta opioid receptor expressed in HEK cell membrane. Format: cell membranes, HEK293.

SMILES strings stand for the structures.

Chain of Delta-type opioid receptor (P41143 whole entry): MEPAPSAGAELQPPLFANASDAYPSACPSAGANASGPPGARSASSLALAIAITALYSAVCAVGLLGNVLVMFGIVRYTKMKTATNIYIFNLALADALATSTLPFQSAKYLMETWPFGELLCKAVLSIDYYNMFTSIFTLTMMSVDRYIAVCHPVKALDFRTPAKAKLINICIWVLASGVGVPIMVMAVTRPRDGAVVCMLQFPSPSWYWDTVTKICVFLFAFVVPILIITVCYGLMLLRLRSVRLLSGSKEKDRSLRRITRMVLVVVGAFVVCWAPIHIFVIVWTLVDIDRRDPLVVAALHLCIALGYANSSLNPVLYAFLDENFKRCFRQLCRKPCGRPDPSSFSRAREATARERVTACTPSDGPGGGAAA

Take `C[C@H]1CC=CC(=O)[C@@H]1C(=O)C[C@@H]1CCCN1CCCO` [HABBEMINES A]: the IC50 is 32.1 µM.
`C[C@H]1CC=CC(=O)[C@@H]1C(=O)C[C@H]1CCCN1CCCO` [HABBEMINES B]: the IC50 amounted to 32.1 µM.

The values above are taken from ChEMBL document CHEMBL1147126, “Habbemines A and B, pyrrolidine alkaloids with human delta-opioid receptor binding affinity from the leaves of Elaeocarpus habbemensis” (J Nat Prod, 2007).
